# Results as given in patent US9018244B2, “Benzopyran compounds, compositions and uses thereof” (Olema Pharmaceuticals, Inc., priority 2011, dated 2015).
# How the values were obtained:
# [1] = Single dose oral pharmacokinetics study in female rats; assay type: in vivo, female Sprague Dawley rats
# Protocol: The oral bioavailabilty in rats of OP-1038 was determined in the following study. 3 rats (female Sprague Dawley, non-fasted) were dosed by oral gavage (5 mg/kg body weight) in 0.5% CMC in water with a comparison to intravenous dosing (3 mg/kg body weight). Plasma was collected at the following hourly time points from rats in both groups (0, 0.08, 1.0, 2.0, 4.0, 8.0, 16.0, 24.0, 48.0 and 96.0 hours post dosing). Plasma concentrations of OP-1038 were determined by HPLC.
# [2] = system: MCF-7 HER2/neu Clone 18 xenograft; assay: Mammary tumor xenograft study; assay type: in vivo, ovariectomized athymic nude mice; conditions: 100 mg/kg twice daily by oral gavage, mice implanted with estrogen pellets
# Excerpt: FIG. 13. […] A) Percent change in tumor volume of human MCF-7 HER2/neu clone 18 xenografts in ovariectomized athymic nude mice implanted with estrogen pellets and treated with either tamoxifen (by oral gavage), fulvestrant (Faslodex) by s.c. injection, or OP-1074 (by oral gavage). B) Weights of the animals treated as above. C) Waterfall plot of final tumor volumes compared with volumes at the start of treatment.
# The purpose of this study is to examine the ability of OP-1074, to slow or shrink a tamoxifen resistant tumor (MCF-7 HER2/neu Clone 18) xenograft growing on ovariectomized athymic nude mice under stimulation from exogenous estrogen. Clone 18 cells grown in culture are implanted along with 0.18 mg estradiol/90 day release pellets (Innovative Research, Sarasota Fla.) into 55 mice to initiate the experiment. When the tumors have reached 250 cubic millimeters the mice are divided into four groups of 10 mice each and dosing initiated. The four groups are:
# 1) No hormonal treatment—this group receives daily gavage with vehicle.
# 2) Tamoxifen citrate 100 mg/kg daily by oral gavage in vehicle.
# 3) Faslodex 100 mg/kg delivered daily by subcutaneous injection.
# 4) OP-1074 100 mg/kg twice daily by oral gavage in vehicle with the exception of two weekends in which dosing was once daily.
# [3] = Sprague-Dawley, rat, plasma, Oral, 5.00 mg/kg, female S.D. rats
SMILES,"AUCextrap ([1]; Oral, 5.00 mg/kg, female S.D. rats)","bioavailability ([1]; Sprague-Dawley, rat, plasma, Oral 5 mg/kg compared to intravenous 3 mg/kg, female S.D. rats, read-out: F % (Oral bioavailability))","Cmax ([1]; Sprague-Dawley, rat, plasma, Oral, 5.00 mg/kg, 0.5% CMC, female S.D. rats)","AUC(0-inf) [1, 3]","MRT last [1, 3]","Tmax [1, 3]","half-life [1, 3]","AUC(0-t) ([1]; Sprague-Dawley, rat, plasma, Oral, 5.00 mg/kg, female S.D. rats, read-out: AUClast (0 to 96 h))",Oral bioavailability (in words) ([1]; oral gavage 5 mg/kg in rats),Tumor volume change of xenografts [2]
"CC1=C(c2ccc(O)cc2)C(c2ccc(OCCN3CC[C@@H](C)C3)cc2)Oc2cc(O)ccc21 (stereo partly drawn) [OP-1038, 3-(4-hydroxyphenyl)-4-methyl-2-(4-{2-[(3R)-3-methylpyrrolidin-1-yl]ethoxy}phenyl)-2H-chromen-7-ol]",10.1 ± 6.26%,18.9%,24.8 ± 3 ng/mL,671 ± 44.8 ng·h/mL,25.9 ± 3.37 h,2.33 ± 1.53 h,28.5 ± 11.6 h,603 ± 46.7 ng·h/mL,orally bioavailable,
"CC1=C(c2ccc(O)cc2)[C@H](c2ccc(OCCN3CC[C@@H](C)C3)cc2)Oc2cc(O)ccc21 [OP-1074, (2S)-3-(4-hydroxyphenyl)-4-methyl-2-(4-{2-[(3R)-3-methylpyrrolidin-1-yl]ethoxy}phenyl)-2H-chromen-7-ol]",,,,,,,,,,rapid and complete regression
